Read-outs that look alike come from different tables or passages of the source.
Legend:
[1] = tested on: recombinant NL-RLuc virus (NL4-3 with Renilla Luciferase gene); test: Inhibition of HIV replication (NL-RLuc luciferase reporter virus in MT-2 cells); format: cell-based; settings: NL43, 120 h
Source text: Inhibition of HIV Replication:
A recombinant NL-RLuc proviral clone was constructed in which a section of the nef gene from NL4-3 was replaced with the Renilla Luciferase gene. This virus is fully infectious and can undergo multiple cycles of replication in cell culture. In addition, the luciferous reporter provides a simple and easy method for quantitating the extent of virus growth and consequently, the antiviral activity of test compounds. The plasmid pNLRLuc contains the proviral NL-Rluc DNA cloned into pUC18 at the PvuII site. The NL-RLuc virus was prepared by transfection of 293T cells with the plasmid pNLRLuc. Transfections were performed using the LipofectAMINE PLUS kit from Invitrogen (Carlsbad, Calif.) according to the manufacturer and the virus generated was titered in MT-2 cells. For susceptibility analyses, the titrated virus was used to infect MT-2 cells in the presence of compound, and after 5 days of incubation, cells were processed and quantitated for virus growth by the amount of expressed luciferase. Assay media was RPMI 1640 supplemented with 10% heat inactivated fetal bovine serum (FBS), 100 units/ml penicillin G/100 units/ml streptomycin, 10 mM HEPES buffer pH 7.55 and 2 mM L-glutamine. The results from at least 2 experiments were used to calculate the EC50 values. Luciferase was quantitated using the Dual Luciferase kit from Promega (Madison, Wis.). Susceptibility of viruses to compounds was determined by incubation in the presence of serial dilutions of the compound. The 50% effective concentration (EC50) was calculated by using the exponential form of the median effect equation where (Fa)=1/[1+(ED50/drug conc.)^m] (Johnson V A, Byington R T. Infectivity Assay. In Techniques in HIV Research. ed. Aldovini A, Walker B D. 71-76. New York: Stockton Press. 1990).

## CCOC(=O)[C@@H](OC(C)(C)C)c1c(C)nc2cc3nn2c1N1CCC(C)(CC1)OCC=CC[C@H](C)Oc1ccc(C(=O)OC)cc1-c1cccc-3c1
From C=CCOC1(C)CCN(c2c([C@H](OC(C)(C)C)C(=O)OCC)c(C)nc3cc(-c4cccc(-c5cc(C(=O)OC)ccc5O[C@@H](C)CC=C)c4)nn23)CC1, rcm bond, Hoveyda-Grubbs II (with CuI), DCE, 1.52 mM, 80.0 °C, 3.0 h
  ring closure, yield of all isomers: 83%

## Cc1ccc2cc1OCCN(Cc1ccccc1)CCOc1cc(F)ccc1-c1cccc(c1)-c1cc3nc(C)c([C@H](OC(C)(C)C)C(=O)O)c-2n3n1 [Example 18, (2S)-2-(tert-Butoxy)-2-{18-fluoro-4-methyl-21,29,33-trioxa-5,7,8-triazaoctacyclo [28.6.2.1^6,^9.1^10,^14.1^23,^27.0^2,^7.0^15,^20.0^34,^38]hentetraconta-1(36),2,4,6(41),8,10(40),11,13, 15(20),16,18,23,25,27(39),34,37-hexadecaen-3-yl}acetic acid]
[1]
  EC50: 1140 nM

## C=C1COc2cc(F)ccc2-c2cccc(c2)-c2cc3nc(C)c([C@H](OC(C)(C)C)C(=O)O)c(n3n2)-c2ccc(F)cc2OC1 [Example 19, (2S)-2-(tert-butoxy)-2-{13,23-difluoro-7-methyl-18-methylidene-16,20-dioxa-3,4,6-triazahexacyclo[25.3.1.1^2,5.0^4,9.0^10,15.0^21,26]dotriaconta-1(31),2,5(32),6,8,10,12,14,21(26),22,24,27,29-tridecaen-8-yl}acetic acid]
[1]
  EC50: 3590 nM

## Cc1ccc2c(c1)OCCCCCOc1cc(F)ccc1-c1cccc(c1)-c1cc3nc(C)c([C@H](OC(C)(C)C)C(=O)O)c-2n3n1 [Example 20, (2S)-2-(tert-butoxy)-2-{25-fluoro-7, 13-dimethyl-16, 22-dioxa-3,4,6-triazahexacyclo[27.3.1.1^2,5.0^4,9.0^10,15.0^23,28]tetratriaconta-1(33),2,5(34),6,8,10,12,14, 23(28),24,26,29,31-tridecaen-8-yl}acetic acid]
[1]
  EC50: 2780 nM

## Cc1nc2cc3nn2c(c1[C@H](OC(C)(C)C)C(=O)O)-c1ccc2c(c1)C(CCO2)OCCCCCOc1cc(F)ccc1-c1cccc-3c1 (stereo partly drawn) [Example 21, (2S)-2-(tert-Butoxy)-2-{18-fluoro-4-methyl-21,27,31-trioxa-5,7,8-triazaheptacyclo[26.6.2.1^6,9.1^10,14.0^2,7.0^15,20.0^32,36]octatriaconta-1(34),2,4,6(38),8,10(37),11,13,15(20),16,18,32,35-tridecaen-3-yl}acetic acid]
[1]
  EC50: 695 nM

## Cc1nc2cc3nn2c(c1[C@H](OC(C)(C)C)C(=O)O)-c1ccc2c(c1)C(CCO2)OCCCCCCOc1cc(F)ccc1-c1cccc-3c1 (stereo partly drawn) [Example 22, (2S)-2-(tert-butoxy)-2-{18-fluoro-4-methyl-21,28,32-trioxa-5,7,8-triazaheptacyclo[27.6.2.1^6,9.1^10,14.0^2,7.0^15,20.0^33,37]nonatriaconta-1(35),2,4,6(39),8,10(38),11,13,15(20),16,18,33,36-tridecaen-3-yl}acetic acid]
[1]
  EC50: 1440 nM

## Cc1nc2cc3nn2c(c1[C@H](OC(C)(C)C)C(=O)O)-c1ccc2c(c1)C(CCO2)OCc1cccc(c1)COc1cc(F)ccc1-c1cccc-3c1 (stereo partly drawn) [Example 23, (2S)-2-(tert-butoxy)-2-{18-fluoro-4-methyl-21, 29, 33-trioxa-5,7,8-triazaoctacyclo[28.6.2.1^6,9.1^10,14.1^23,27.0^2,7.0^15,20.0^34,38]hentetraconta-1(36),2,4,6(41),8,10(40),11,13,15(20),16,18, 23, 25, 27(39),34,37-hexadecaen-3-yl}acetic acid]
From COC(=O)[C@@H](OC(C)(C)C)c1c(C)nc2cc(-c3cccc(-c4ccc(F)cc4OCc4cccc(CBr)c4)c3)nn2c1-c1ccc2c(c1)C(O)CCO2, ether bond, NaH, THF, 2.77 mM, 25.0 °C, 5.0 h, 2 steps
  ring closure, yield of all isomers: 7.2%
[1]
  EC50: 123 nM

## Cc1nc2cc3nn2c(c1[C@H](OC(C)(C)C)C(=O)O)N1CCC(C)(CC1)OCCOCCOc1cc(F)ccc1-c1cccc-3c1 [Example 24, (2S)-2-(tert-Butoxy)-2-{18-fluoro-4,28-dimethyl-21, 24, 27-trioxa-1,5,7,8-tetraazahexacyclo[26.2.2.1^6,9.1^10,14.0^2,7.0^15,20]tetratriaconta-2,4,6(34),8,10(33),11,13,15(20),16,18-decaen-3-yl}acetic acid]
[1]
  EC50: 6 nM

## Cc1nc2cc3nn2c(c1[C@H](OC(C)(C)C)C(=O)O)N1CCC(C)(CC1)OCCCC[C@H](C)Oc1ccc(C(=O)NCCc2ccc(F)cc2)cc1-c1cccc-3c1 [Example 25, (2S)-2-(tert-Butoxy)-2-[(22S)-17-{[2-(4-fluorophenyl)ethyl]carbamoyl}-4,22,28-trimethyl-21,27-dioxa-1,5,7,8-tetraazahexacyclo[26.2.2.1^6,9.1^10,14.0^2,7.0^15,20]tetratriaconta-2,4,6(34),8,10(33),11,13,15(20),16,18-decaen-3-yl]acetic acid]
[1]
  EC50: 4 nM

## Cc1nc2cc3nn2c(c1[C@H](OC(C)(C)C)C(=O)O)N1CCC(C)(CC1)OCCCC[C@H](C)Oc1ccc(C(=O)N(C)CCc2ccc(F)cc2)cc1-c1cccc-3c1 [Example 26, (2S)-2-(tert-Butoxy)-2-[(22S)-17-{[2-(4-fluorophenyl)ethyl](methyl)carbamoyl}-4, 22, 28-trimethyl-21, 27-dioxa-1,5,7,8-tetraazahexacyclo[26.2.2.1^6,9.1^10,14.0^2,7.0^15,20]tetratriaconta-2,4,6(34),8,10(33),11,13,15(20),16,18-decaen-3-yl]acetic acid]
[1]
  EC50: 3 nM

— US9834566B2, “Pyrazolopyrimidine macrocycles as inhibitors of human immunodeficiency virus replication” (priority 2014, dated 2017)
